Data published in ChEMBL document CHEMBL1142106, “Resin glycosides from the roots of Ipomoea tyrianthina and their biological activity” (2007).
Calls of active or inactive are those of the source. The rule behind the calls is not given here.

Tests used:
[1] = test system: Mus musculus; test: Anticonvulsant effect in ICR mouse assessed as mortality protection against pentylenetetrazole-induced seizures at 40 mg/kg, ip relative to control; format: functional; conditions: route intraperitoneal
[2] = test system: Mus musculus; test: Anxiolytic activity of ICR mouse at 10 mg/kg, ip by EPM test relative to control; format: functional, organism-based; set-up: dose 10 mg/kg
[3] = test system: Ileum; test: Relaxation of spontaneous contractions of isolated rat ileum relative to control; format: functional, tissue-based
[4] = test system: Ileum; test: Relaxation of spontaneous contractions of isolated rat ileum at 250 ug/mL relative to control; format: functional
[5] = test system: Mus musculus; test: Anticonvulsant effect in ICR mouse assessed as mortality protection against pentylenetetrazole-induced seizures at 1.0 mg/kg, ip relative to control; format: functional, organism-based; set-up: dose 1 mg/kg
[6] = test system: Mus musculus; test: Anxiolytic activity of ICR mouse assessed as increase in time spent in open arms at 1.0 mg/kg, ip by EPM test relative to control; format: functional, organism-based; set-up: dose 1 mg/kg
[7] = test system: Mus musculus; test: Anticonvulsant effect in ICR mouse assessed as mortality protection against pentylenetetrazole-induced seizures at 10 mg/kg, ip relative to control; format: functional; conditions: route intraperitoneal
[8] = test system: Mus musculus; test: Antidepressant activity in ICR mouse assessed as diminution of immobility time at 10 mg/kg, ip by forced swimming test relative to control; format: functional, organism-based; set-up: dose 10 mg/kg

C/C=C(\C)C(=O)O[C@H]1[C@H](O)[C@@H](O)[C@H](O[C@@H]2[C@H]3OC(=O)CCCCCCCCCC(CCCCC)O[C@@H]4O[C@H](C)[C@@H](O)[C@H](O)[C@H]4O[C@@H]4O[C@H](CO)[C@@H](O)[C@H](O)[C@H]4O[C@H](O[C@H]2C)[C@@H]3OC(=O)C(C)CC)O[C@@H]1C (some centres undefined) [SCAMMONIN 1]
Activity [1]: 100%
Activity [2]: inactive
Activity [3]: Active
Emax at 250 µg/mL [4]: 55.1%

CN1C(=O)CN=C(c2ccccc2)c2cc(Cl)ccc21
Activity [5]: Active
Activity [6]: Active

CCCCCC1CCCCCCCCCC(=O)O[C@@H]2[C@@H](O[C@@H]3O[C@H](C)[C@@H](O)[C@H](O)[C@H]3O)[C@H](C)O[C@@H](O[C@H]3[C@H](O[C@H]4[C@H](O1)O[C@H](C)[C@@H](O)[C@@H]4O)O[C@H](CO)[C@@H](O)[C@@H]3O)[C@@H]2OC(=O)C(C)CC (some centres undefined) [SCAMMONIN 2]
Activity [1]: 66%
Activity [2]: inactive

CCCCCC1CCCCCCCCCC(=O)O[C@@H]2[C@@H](O[C@@H]3O[C@H](C)[C@@H](OC(=O)C(C)CC)[C@H](O)[C@H]3O)[C@H](C)O[C@@H](O[C@H]3[C@H](O[C@H]4[C@H](O1)O[C@H](C)[C@@H](O)[C@@H]4O)O[C@H](CO)[C@@H](O)[C@@H]3O)[C@@H]2OC(=O)CCC (some centres undefined) [TYRIANTHIN 6]
Activity [1]: 88%
Activity [7]: 33.33%
Activity [2]: inactive
Activity [3]: Active
Emax at 250 µg/mL [4]: 59.1%
Activity [8]: Active
